Source: patent US5461067A, “Retroviral protease inhibiting compounds” (priority 1994, dated 1995)

Legend:
[1] = molecular target: HIV-1 protease (Human immunodeficiency virus type 1 group M subtype B, UniProt P04585); experiment: Fluorogenic assay for screening inhibitors of HIV protease
Protocol: The inhibitory potency of the compounds of the invention can be determined by the following method.
A compound of the invention is dissolved in DMSO and a small aliquot further diluted with DMSO to 100 times the final concentration desired for testing. The reaction is carried out in a 6×50 mm tube in a total volume of 300 microliters. The final concentrations of the components in the reaction buffer are: 125 mM sodium acetate, 1M sodium chloride, 5 mM dithiothreitol, 0.5 mg/ml bovine serum albumin, 1.3 μM fluorogenic substrate, 2% (v/v) dimethylsulfoxide, pH 4.5. After addition of inhibitor, the reaction mixture is placed in the fluorometer cell holder and incubated at 30° C. for several minutes. The reaction is initiated by the addition of a small aliquot of cold HIV protease. The fluorescence intensity (excitation 340 nm, emmision 490 nM) is recorded as a function of time. The reaction rate is determined for the first six to eight minutes. The observed rate is directly proportional to the moles of substrate cleaved per unit time. The percent inhibition is 100×(1-(rate in presence of inhibitor)/(rate in absence of inhibitor)).

[2] = Cytotoxicity in MT4 cells; format: cell-based; details: human, concentration at which 50% of the cells remain viable, read-out: LC50 (the source's name)
Excerpt: (§1) The IC50 is the concentration of compound that gives 50% inhibition of the cytopathic effect of HIV. The LC50 is the concentration of compound at which 50% of the cells remain viable.

[3] = tested on: HIV-13B in MT4 cells; experiment: Anti-HIV activity (inhibition of cytopathic effect of HIV) in MT4 cells; format: cell-based; details: Human immunodeficiency virus 1, concentration giving 50% inhibition of cytopathic effect of HIV
Excerpt: as §1

[4] = pH 4.5, read-out: Percent Inhibition

Row | SMILES | inhibition at 0.0005 µM [1, 4] | CC50 [2] | IC50 [3] | IC50 [1] | inhibition at 0.0044 µM [1, 4]
1 | CC(C)[C@H](NC(=O)OCc1ccccn1)C(=O)N[C@@H](Cc1ccccc1)[C@@H](O)CN(Cc1ccccc1)NC(=O)OCc1cccnc1 [Example 5B, 5S-N-((2-Pyridinyl)methoxycarbonyl)valinylamino-2-((N-3-pyridinyl)methoxycarbonyl)amino-4S-hydroxy-1,6-diphenyl-2-azahexane] | 60% | > 100 µM | 0.15 to 0.26 µM | – | –
2 | CC(C)c1nc(CN(C)C(=O)N[C@H](C(=O)NN(Cc2ccccc2)C[C@H](O)[C@H](Cc2ccccc2)NC(=O)OCc2ccno2)C(C)C)co1 [Example 13D, 5S-N-((5-Isoxazolyl)methoxy)carbonylamino-2-N-((N-methyl-N-((2-isopropyl-4-oxazolyl)methyl)amino)carbonyl)-L-valinylamino-4S, hydroxy-1,6-diphenyl-2-azahexane] | 71% | 58 µM | 0.102 to 0.15 µM | – | –
3 | CC(C)(C)OC(=O)NN(Cc1ccccc1)C[C@H](O)[C@H](Cc1ccccc1)NC(=O)OCc1cncs1 [Example 7F, 5S-(((5-Thiazolyl)methoxy)carbonyl)amino-2-(t-butyloxycarbonyl)amino-4S-hydroxy-1,6-diphenyl-2-azahexane] | – | 44 µM | 6.5 to 18.2 µM | 0.0044 µM | 50%
